Calls of active or inactive are those of the source.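 Rule for the calls: active = statistically significant rise in LC3 puncta area per cell versus the same autophagy inducer given alone; inactive = the rest.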
How the values were obtained:
[1] = autophagy inducers by MAP1LC3 foci formation, imaging, murine bone marrow-derived macrophages, green fluorescent protein-tagged MAP1LC3 (AID 1963955); details: mouse BMDM GFP-LC3 puncta imaging, 4 h, hits give high values
[2] = tested on: mouse BMDM GFP-LC3 puncta imaging, 4 h; experiment: as above

CS(C)=O
LC3 puncta area per cell ([1]; no co-treatment): 7.38 um2/cell (inactive) | LC3 puncta area per cell ([1]; with HBSS): 9.2 um2/cell

CCC(C)(C)C(=O)C(=O)N1CCCC[C@H]1C(=O)N[C@H](CCc1ccc(OC)cc1)C(=O)N1[C@@H]2CC[C@H]1CC(Nc1nc(NCCc3sc(N)nc3C)nc(N3CCn4ncnc4C3)n1)C2 (stereo not given in full)
EC50 ([2]; no co-treatment, at 20 µM): 44.6 µM | EC50 ([2]; no co-treatment, at 40 µM): 44.6 µM | EC50 ([2]; with HBSS, at 20 µM): 22.7 µM | EC50 ([2]; with HBSS, at 40 µM): 22.7 µM

CCC(C)(C)C(=O)C(=O)N1CCCC[C@H]1C(=O)N[C@H](CCc1ccc(OC)cc1)C(=O)N1[C@@H]2CC[C@H]1CC(Nc1nc(NCCc3ccccc3)nc(N3CCn4ncnc4C3)n1)C2 (stereo not given in full)
LC3 puncta area per cell ([1]; at 20 µM, no co-treatment): 5.15 um2/cell (inactive) | LC3 puncta area per cell ([1]; at 20 µM, with HBSS): 10.8 um2/cell (inactive) | LC3 puncta area per cell ([1]; at 40 µM, no co-treatment): 5.34 um2/cell (inactive) | LC3 puncta area per cell ([1]; at 40 µM, with HBSS): 11.1 um2/cell

Source: PubChem BioAssay AID1963955 (Xavier Lab, Infectious Disease and Microbiome Program, …, 2024)
